One data set relates to NCI-H929. In words: Cell viability CTG assay in BCL-2i resistant MM model NCI-H929. In kind it is cell-based. The note with it: insensitive or resistant to BCL-2 inhibitor. On the procedure: (§1) Cell viability was determined using CellTiter-Glo® luminescent cell viability assay (Promega) or WST assay (Cell counting Kit-8, Shanghai life iLab, China) by following manufacturer's instruction. Cell viability was calculated as cell viability=(mean RLU sample−mean RLU blank)/(RLU cell control−RLU blank)×100. IC50 value was calculated using GraphPad Prism. Combination index (CI) value was calculated by CalcuSyn software (BIOSOFT, UK). CI<0.9 indicate a synergistic combination effect. CI<0.1 scored as 5+ indicates very strong synergistic combination effect, CI between 0.1 and 0.3 scored as 4+ indicates strong synergistic combination effect, CI between 0.3 and 0.7 scored as 3+ indicates medium synergistic combination effect.
Method used was the cell viability CTG assay. BCL-2i resistant MM mode NCI-H929 was established.

Data set [1] deals with RS4;11 cells carrying different Bcl-2 mutation. In words: Cell viability CTG assay in RS4;11 cells, wild type and Bcl-2 mutants. The format is cell-based, human. As to the method: Cell viability was determined using CellTiter-Glo® luminescent cell viability assay (Promega) or WST assay (Cell counting Kit-8, Shanghai life iLab, China) by following manufacturer's instruction. Cell viability was calculated as cell viability=(mean RLU sample−mean RLU blank)/(RLU cell control−RLU blank)×100. IC50 value was calculated using GraphPad Prism. Combination index (CI) value was calculated by CalcuSyn software (BIOSOFT, UK). CI<0.9 indicate a synergistic combination effect. CI<0.1 scored as 5+ indicates very strong synergistic combination effect, CI between 0.1 and 0.3 scored as 4+ indicates strong synergistic combination effect, CI between 0.3 and 0.7 scored as 3+ indicates medium synergistic combination effect. Method used was the cell viability CTG assay. RS4;11 cells were established from the bone marrow of a patient with acute lymphoblastic leukemia (ALL).

For data set [2], the system named is MM1.S. In words: CDX model of MM1.S. In kind it is in vivo.
Another data set concerns platelet. The conditions noted are these: compared with Compound E; cited from earlier work.
Data set [3] concerns KMS34. Kind of data set: CDX model of KMS34. In kind it is in vivo.
Data set [4] deals with MM1.S. Kind of data set: Cell death in Venetoclax-resistant MM cell line MM1.S. The format is cell-based. The note with it: compared with Venetoclax and Navitoclax.
The test system of data set [5] is KMS27 drug-resistant (DTEP) clones. Kind of data set: Venetoclax-resistant DTEP clones of KMS27 MM cell line: proliferation and apoptosis. In kind it is cell-based. An excerpt:
Compared with the parent cells, IC50 is increased by at least 3 to 10 times.

The subject of a further data set is RPMI 8226 cells. Kind of data set: Cell viability CTG assay in BCL-2i insensitive RPMI 8226 MM cells. In kind it is cell-based. On the procedure: as §1
Method used was the cell viability CTG assay.

Another data set relates to primary MM cells. In words: Primary MM cells from 4 MM patients in vitro. The conditions noted are these: compared with venetoclax. The format is cell-based, human. An excerpt: The activity of compound E was confirmed in primary MM cells in vitro.
In data set [6] the test system is KMS34. Kind of data set: Cell death in Venetoclax-resistant MM cell line KMS34. The format is cell-based. The note with it: compared with Venetoclax and Navitoclax.

In general, IC50 refers to the midpoint of a concentration-inhibition curve.

As to `CN[C@@H](C)C(=O)N[C@H]1CN(S(=O)(=O)c2cccc(S(=O)(=O)N3CC[C@H]4CC[C@@H](C(=O)NC(c5ccccc5)c5ccccc5)N4C(=O)[C@@H](NC(=O)[C@H](C)NC)C3)c2)CC[C@H]2CC[C@@H](C(=O)NC(c3ccccc3)c3ccccc3)N2C1=O` [APG-1387], the “inhibition of cell proliferation” value in the data set with NCI-H929 was “single agent activity to inhibit cell proliferation”.

As to `CCN1[C@@H](C(=O)NC23CCC(C(=O)O)(CC2)CC3)[C@H](c2cccc(Cl)c2F)[C@]2(C(=O)Nc3cc(Cl)ccc32)C12CCCCC2` [APG-115], in data set [1] (RS4;11-WT and RS4;11 carrying G101V, D103E, V156D, G101V-D103E, CTG), the cell viability result is recorded as “effectively decrease cell viability”. Moreover, in [1] (all RS4;11 cell lines (WT and Bcl-2 mutants), 72 h), the “IC50 (CTG 72 h) compared with ABT-199 (venetoclax)” value was “lower than those of ABT-199 (venetoclax) in all cell lines”.

Take `Cc1c(S(C)(=O)=O)c(-c2cc(F)cc(N3CCN(c4ccc(NS(=O)(=O)c5ccc(N[C@H](CCN6CCC(C(=O)OCCCP(=O)(O)O)CC6)CSc6ccccc6)c(S(=O)(=O)C(F)(F)F)c5)cc4)CC3)c2)c(-c2ccc(Cl)cc2)n1C(C)C` [compound D, (3R)-1-(3-(4-(4-(4-(3-(2-(4-chlorophenyl)-1-isopropyl-4-methylsulfonyl-5-methyl-1H-pyrrol-3-yl)-5-fluorophenyl)piperazin-1-yl)-phenylaminosulfonyl)-2-trifluoromethylsulfonyl-anilino)-4-phenylthio-butyl)-piperidine-4-carboxylic acid 3-phosphonopropyl ester]: the “efficacy in CDX model” value in the data set with MM1.S [2] and in the data set on KMS34 [3] was “also effective” each time. Also, the platelet toxicity result in the data set on platelet was “lower platelet toxicity”.

With `Cc1c(S(C)(=O)=O)c(-c2cc(F)cc(N3CCN(c4ccc(NS(=O)(=O)c5ccc(N[C@H](CCN6CCC(C(=O)O)CC6)CSc6ccccc6)c(S(=O)(=O)C(F)(F)F)c5)cc4)CC3)c2)c(-c2ccc(Cl)cc2)n1C(C)C` [APG-1252M1], the cell death induction entry with MM1.S [4] and in the data set with KMS34 [6] was “the most effective in inducing cell death” each time. In addition, the apoptosis result in [5] was “induced apoptosis”. Also, the “proliferation of drug-resistant clones” value in [5] (compared with Venetoclax) is “successfully inhibited the proliferation of drug-resistant clones”. Also, the “inhibition of cell proliferation” value in the data set on RPMI 8226 cells (RPMI 8226 model, insensitive to BCL-2 inhibitor) is given as “single agent activity in inhibiting cell proliferation”. Besides, the “activity in primary MM cells” value in the data set on primary MM cells is on record as “higher than venetoclax”.

`O=C(NS(=O)(=O)c1ccc(NC[C@H]2COCCO2)c([N+](=O)[O-])c1)c1ccc(N2CCN(CC3=C(c4ccc(Cl)cc4)CC4(CCC4)CC3)CC2)cc1Oc1cnc2[nH]ccc2c1` [APG-2575, (S)—N-((4-(((1,4-dioxan-2-yl)methyl)amino)-3-nitrophenyl)sulfonyl)-2-((1H-pyrrolo[2,3-b]pyridin-5-yl)oxy)-4-(4-((6-(4-chlorophenyl)spiro[3.5]non-6-en-7-yl)methyl)piperazin-1-yl)benzamide]: the IC50 in the data set with RPMI 8226 cells (Homo sapiens, RPMI 8226 cells, CTG) was 5.58 µM.
